# Reference: PubChem BioAssay (NCI)
#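 48-hour exposure; five concentrations; linearly interpolated endpoints. GI50 marks 50% less growth. TGI: concentration producing complete growth inhibition.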
# Columns and labels:
# Assay in all cases: DTP human tumour cell line panel, 48 h
# DU-145 prostate = test system: DU-145 prostate
# CCRF-CEM leukemia = test system: CCRF-CEM leukemia
# SF-268 CNS = test system: SF-268 CNS
# TK-10 renal = test system: TK-10 renal
# SN12C renal = test system: SN12C renal
# HCT-116 colon = test system: HCT-116 colon
# NCI-H460 lung = test system: NCI-H460 lung
# HS 578T breast = test system: HS 578T breast
# NCI-H226 lung = test system: NCI-H226 lung
# LOX IMVI melanoma = test system: LOX IMVI melanoma
# EKVX NSCLC = test system: EKVX NSCLC
# SW-620 colon = test system: SW-620 colon
# NCI-H23 lung = test system: NCI-H23 lung
# SK-OV-3 ovarian = test system: SK-OV-3 ovarian
# COLO 205 colon = test system: COLO 205 colon
# NCI/ADR-RES ovarian = test system: NCI/ADR-RES ovarian
# KM12 colon = test system: KM12 colon
# MOLT-4 leukemia = test system: MOLT-4 leukemia
# SK-MEL-5 melanoma = test system: SK-MEL-5 melanoma
# HOP-62 NSCLC = test system: HOP-62 NSCLC
# MCF7 breast = test system: MCF7 breast
# HCC-2998 colon = test system: HCC-2998 colon
# K-562 leukemia = test system: K-562 leukemia
# MALME-3M melanoma = test system: MALME-3M melanoma
# SNB-75 CNS = test system: SNB-75 CNS
# U251 CNS = test system: U251 CNS
# OVCAR-8 ovarian = test system: OVCAR-8 ovarian
# NCI-H522 lung = test system: NCI-H522 lung
# 786-0 renal = test system: 786-0 renal
# IGROV1 ovarian = test system: IGROV1 ovarian
# A498 renal = test system: A498 renal
# OVCAR-3 ovarian = test system: OVCAR-3 ovarian
# OVCAR-5 ovarian = test system: OVCAR-5 ovarian
# HL-60(TB) leukemia = test system: HL-60(TB) leukemia
# MDA-MB-435 = test system: MDA-MB-435
# UO-31 renal = test system: UO-31 renal
# SF-539 CNS = test system: SF-539 CNS
# A549 NSCLC = test system: A549 NSCLC
# BT-549 breast = test system: BT-549 breast
# UACC-62 melanoma = test system: UACC-62 melanoma
# HOP-92 NSCLC = test system: HOP-92 NSCLC
# MDA-MB-231 breast = test system: MDA-MB-231 breast
# UACC-257 melanoma = test system: UACC-257 melanoma
# PC-3 prostate = test system: PC-3 prostate
# M14 melanoma = test system: M14 melanoma
# SR leukemia = test system: SR leukemia
# OVCAR-4 ovarian = test system: OVCAR-4 ovarian
# SK-MEL-2 melanoma = test system: SK-MEL-2 melanoma
# RPMI-8226 leukemia = test system: RPMI-8226 leukemia
# SF-295 CNS = test system: SF-295 CNS
# HCT-15 colon = test system: HCT-15 colon
# SNB-19 CNS = test system: SNB-19 CNS
# HT29 colon = test system: HT29 colon
smiles,measurement,setting,value
CCCC[C@H](NC(=O)[C@H]1CCCCN1C)C(=O)N(C)[C@H](C[C@@H](OC(C)=O)c1nc(C(=O)N[C@@H](Cc2ccccc2)C[C@H](C)C(=O)OCC)cs1)C(C)C,GI50,DU-145 prostate,< 3.33 nM
same,TGI,DU-145 prostate,> 33300 nM
same,GI50,CCRF-CEM leukemia,< 3.33 nM
same,TGI,CCRF-CEM leukemia,6210 nM
same,GI50,SF-268 CNS,< 3.33 nM
same,TGI,SF-268 CNS,12100 nM
same,GI50,TK-10 renal,7860 nM
same,TGI,TK-10 renal,> 33300 nM
same,GI50,SN12C renal,5.83 nM
same,TGI,SN12C renal,6550 nM
same,GI50,HCT-116 colon,< 3.33 nM
same,TGI,HCT-116 colon,> 33300 nM
same,GI50,NCI-H460 lung,< 3.33 nM
same,TGI,NCI-H460 lung,5650 nM
same,GI50,HS 578T breast,< 3.33 nM
same,TGI,HS 578T breast,8490 nM
same,GI50,NCI-H226 lung,85.7 nM
same,TGI,NCI-H226 lung,19100 nM
same,GI50,LOX IMVI melanoma,< 3.33 nM
same,TGI,LOX IMVI melanoma,5640 nM
same,GI50,EKVX NSCLC,7.39 nM
same,TGI,EKVX NSCLC,> 33300 nM
same,GI50,SW-620 colon,< 3.33 nM
same,TGI,SW-620 colon,> 33300 nM
same,GI50,NCI-H23 lung,6.41 nM
same,TGI,NCI-H23 lung,> 33300 nM
same,GI50,SK-OV-3 ovarian,< 3.33 nM
same,TGI,SK-OV-3 ovarian,13000 nM
same,GI50,COLO 205 colon,< 3.33 nM
same,TGI,COLO 205 colon,7.12 nM
same,GI50,NCI/ADR-RES ovarian,82.8 nM
same,TGI,NCI/ADR-RES ovarian,> 33300 nM
same,GI50,KM12 colon,< 3.33 nM
same,TGI,KM12 colon,> 33300 nM
same,GI50,MOLT-4 leukemia,3.82 nM
same,TGI,MOLT-4 leukemia,20500 nM
same,GI50,SK-MEL-5 melanoma,< 3.33 nM
same,TGI,SK-MEL-5 melanoma,47.3 nM
same,GI50,HOP-62 NSCLC,< 3.33 nM
same,TGI,HOP-62 NSCLC,8610 nM
same,GI50,MCF7 breast,< 3.33 nM
same,TGI,MCF7 breast,> 33300 nM
same,GI50,HCC-2998 colon,< 3.33 nM
same,TGI,HCC-2998 colon,8390 nM
same,GI50,K-562 leukemia,< 3.33 nM
same,TGI,K-562 leukemia,11100 nM
same,GI50,MALME-3M melanoma,1080 nM
same,TGI,MALME-3M melanoma,7100 nM
same,GI50,SNB-75 CNS,< 3.33 nM
same,TGI,SNB-75 CNS,10800 nM
same,GI50,U251 CNS,< 3.33 nM
same,TGI,U251 CNS,8580 nM
same,GI50,OVCAR-8 ovarian,5.28 nM
same,TGI,OVCAR-8 ovarian,> 33300 nM
same,GI50,NCI-H522 lung,< 3.33 nM
same,TGI,NCI-H522 lung,775 nM
same,GI50,786-0 renal,< 3.33 nM
same,TGI,786-0 renal,6270 nM
same,GI50,IGROV1 ovarian,3.43 nM
same,TGI,IGROV1 ovarian,> 33300 nM
same,GI50,A498 renal,< 3.33 nM
same,TGI,A498 renal,8.69 nM
same,GI50,OVCAR-3 ovarian,< 3.33 nM
same,TGI,OVCAR-3 ovarian,12200 nM
same,GI50,OVCAR-5 ovarian,8.33 nM
same,TGI,OVCAR-5 ovarian,21600 nM
same,GI50,HL-60(TB) leukemia,< 3.33 nM
same,TGI,HL-60(TB) leukemia,3.41 nM
same,GI50,MDA-MB-435,< 3.33 nM
same,TGI,MDA-MB-435,< 3.33 nM
same,GI50,UO-31 renal,18.8 nM
same,TGI,UO-31 renal,11900 nM
same,GI50,SF-539 CNS,3.46 nM
same,TGI,SF-539 CNS,24 nM
same,GI50,A549 NSCLC,4.44 nM
same,TGI,A549 NSCLC,> 33300 nM
same,GI50,BT-549 breast,< 3.33 nM
same,TGI,BT-549 breast,133 nM
same,GI50,UACC-62 melanoma,< 3.33 nM
same,TGI,UACC-62 melanoma,24100 nM
same,GI50,HOP-92 NSCLC,1230 nM
same,TGI,HOP-92 NSCLC,27300 nM
same,GI50,MDA-MB-231 breast,< 3.33 nM
same,TGI,MDA-MB-231 breast,341 nM
same,GI50,UACC-257 melanoma,3560 nM
same,TGI,UACC-257 melanoma,10600 nM
same,GI50,PC-3 prostate,< 3.33 nM
same,TGI,PC-3 prostate,> 33300 nM
same,GI50,M14 melanoma,< 3.33 nM
same,TGI,M14 melanoma,3620 nM
same,GI50,SR leukemia,< 3.33 nM
same,TGI,SR leukemia,6790 nM
same,GI50,OVCAR-4 ovarian,476 nM
same,TGI,OVCAR-4 ovarian,> 33300 nM
same,GI50,SK-MEL-2 melanoma,< 3.33 nM
same,TGI,SK-MEL-2 melanoma,13700 nM
same,GI50,RPMI-8226 leukemia,< 3.33 nM
same,TGI,RPMI-8226 leukemia,4850 nM
same,GI50,SF-295 CNS,< 3.33 nM
same,TGI,SF-295 CNS,4340 nM
same,GI50,HCT-15 colon,5.21 nM
same,TGI,HCT-15 colon,5730 nM
same,GI50,SNB-19 CNS,< 3.33 nM
same,TGI,SNB-19 CNS,> 33300 nM
same,GI50,HT29 colon,< 3.33 nM
same,TGI,HT29 colon,3600 nM
